target: Endothelial lipase (EL) (Homo sapiens (Human), UniProt Q9Y5X9); assay: Endothelial lipase (EL) activity assay with fluorescent substrate A10070 in DMPG vesicles; format: biochemical
Experimental: Endothelial lipase activity was measured using a fluorescent substrate, A10070, (Invitrogen, CA) doped into an artificial vesicle containing DMPG (Avanti Polar Lipids) as the excipient. Vesicles were prepared by combining 285 μL of 1 mM DMPG in a 1:1 mixture of MeOH and CHCl3 with 15 μL of 1 mM A10070 in a 1:1 mixture of MeOH and CHCl3. The mixture was dried under nitrogen and resuspended in 150 μL of 50 mM HEPES pH 8.0 buffer containing 100 mM NaCl and 0.2 mM EDTA. The sample was allowed to sit at rt for 15 min and then was sonicated 3×4 mins on ice with a Branson Sonicator using duty cycle 1. This preparation provides vesicles with a mole fraction of 0.05 for the FRET substrate.
The enzymatic assay was measured using white, opaque 96-well half area plates. Each well contained 60 μL of assay buffer (50 mM HEPES pH 8.0, 50 mM NaCl and 1 mM CaCl2) and 2 ul of a DMSO solution containing compound of interest. Conditioned media obtained from HT-1080 cells, which were transformed by RAGE technology (Athersys) to overexpress endogenous EL, was added and the reaction was allowed to incubate for 20 min at 37° C. with gentle agitation. The reaction was started by the addition of 20 μL of a 1:4 dilution of vesicles. The final total reaction volume was 100 μL. The reaction rates were measured on a Gemini plate reader with an excitation wavelength of 488 nm and an emission of 530 nm. Readings were taken every 20 seconds for 10 min with agitation between each reading. The slope of the linear portion of the readout was used to calculate the rate of the reaction.

Endothelial lipase (EL), sequence (Q9Y5X9 21-500): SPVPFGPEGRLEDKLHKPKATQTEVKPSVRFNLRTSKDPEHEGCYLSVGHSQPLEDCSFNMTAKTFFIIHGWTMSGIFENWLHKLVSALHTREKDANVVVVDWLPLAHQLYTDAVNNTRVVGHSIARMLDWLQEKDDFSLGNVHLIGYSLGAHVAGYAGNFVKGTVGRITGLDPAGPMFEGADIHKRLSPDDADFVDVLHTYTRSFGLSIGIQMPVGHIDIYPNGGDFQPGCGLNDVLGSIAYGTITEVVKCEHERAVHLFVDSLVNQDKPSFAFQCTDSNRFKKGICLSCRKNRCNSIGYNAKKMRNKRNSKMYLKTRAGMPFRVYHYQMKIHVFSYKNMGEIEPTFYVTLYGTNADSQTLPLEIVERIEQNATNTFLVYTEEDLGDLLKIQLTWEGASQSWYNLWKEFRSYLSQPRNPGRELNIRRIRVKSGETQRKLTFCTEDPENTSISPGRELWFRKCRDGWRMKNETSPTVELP

**Q.** `O=C(c1nnc(N[C@H]2CCNC2=O)o1)c1nc2ccc(-c3ccccc3)cc2s1` [Example 53, (S)-3-((5-(6-phenylbenzo[d]thiazole-2-carbonyl)-1,3,4-oxadiazol-2-yl)amino)pyrrolidin-2-one] was tested. Which IC50 did it give?
**A.** < 10 nM

**Q.** With `O=C(c1nnc(NC2CC2)o1)c1nc2ccc(-c3ccc(F)cc3)cc2s1` [Example 66, (5-(cyclopropylamino)-1,3,4-oxadiazol-2-yl)(6-(4-fluorophenyl)benzo[d]thiazol-2-yl)methanone] as the compound, how does the IC50 read?
**A.** 290 nM

**Q.** `Nc1nnc(C(=O)c2nc3ccc(-c4ccccc4)cc3s2)o1` [Example 89, (5-Amino-1,3,4-oxadiazol-2-yl)(6-phenylbenzo[d]thiazol-2-yl)methanone] was tested. Which IC50 did it give?
**A.** 29 nM

**Q.** Which IC50 does the source give for `O=C(c1nnc(N[C@@H]2CCNC2=O)o1)c1nc2ccc(-c3ccccc3)cc2s1` [Example 56, (R)-3-((5-(6-phenylbenzo[d]thiazole-2-carbonyl)-1,3,4-oxadiazol-2-yl)amino)pyrrolidin-2-one] here?
**A.** 46 nM

**Q.** How did the IC50 turn out when `O=C(c1nnc(N[C@H]2CCNC2=O)o1)c1nc2ccc(-c3ccc(OC(F)F)cc3)cc2s1` [Example 82, (S)-3-((5-(6-(4-(difluoromethoxy)phenyl)benzo[d]thiazole-2-carbonyl)-1,3,4-oxadiazol-2-yl)amino)pyrrolidin-2-one] was run?
**A.** < 10 nM

**Q.** With `O=C(c1nnc(CCC2CCN(CC3CC3)CC2)o1)c1nc2ccc(-c3ccccc3)cc2s1` [Example 19, (5-(2-(1-(cyclopropylmethyl)piperidin-4-yl)ethyl)-1,3,4-oxadiazol-2-yl)(6-phenylbenzo[d]thiazol-2-yl)methanone] as the compound, how does the IC50 read?
**A.** 13 nM

**Q.** Which IC50 does the source give for `O=C(c1nnc(NC2CCCNC2=O)o1)c1nc2ccc(-c3ccccc3)cc2s1` (single isomer, unassigned) [Example 77, 3-((5-(6-phenylbenzo[d]thiazole-2-carbonyl)-1,3,4-oxadiazol-2-yl)amino)piperidin-2-one] here?
**A.** 140 nM

— patent US9169240B2, “Ketone linked benzothiazole inhibitors of endothelial lipase” (BRISTOL-MYERS SQUIBB COMPANY, priority 2012, dated 2015)
